Laboratory results taken from ChEMBL document CHEMBL5352416, “Benzo[b]thiophene-2-carboxamides as novel opioid receptor agonists with potent analgesic effect and reduced constipation” (Eur J Med Chem, 2022).
Activity calls are given as the source filed them. The calls are words filed in the database; no cut-off is given here.

Key:
Mu-type opioid receptor [1] = target: T1, Mu-type opioid receptor (Homo sapiens, UniProt P35372); experiment: Agonist activity at human mu opioid receptor expressed in CHO-K1 cells coexpressing Galpha15 assessed as increase in fluorescence of [ca2+]i measured for 1.52 sec by FLIPR calcium assay; assay type: functional, cell-based
T1 sequence (P35372 whole entry): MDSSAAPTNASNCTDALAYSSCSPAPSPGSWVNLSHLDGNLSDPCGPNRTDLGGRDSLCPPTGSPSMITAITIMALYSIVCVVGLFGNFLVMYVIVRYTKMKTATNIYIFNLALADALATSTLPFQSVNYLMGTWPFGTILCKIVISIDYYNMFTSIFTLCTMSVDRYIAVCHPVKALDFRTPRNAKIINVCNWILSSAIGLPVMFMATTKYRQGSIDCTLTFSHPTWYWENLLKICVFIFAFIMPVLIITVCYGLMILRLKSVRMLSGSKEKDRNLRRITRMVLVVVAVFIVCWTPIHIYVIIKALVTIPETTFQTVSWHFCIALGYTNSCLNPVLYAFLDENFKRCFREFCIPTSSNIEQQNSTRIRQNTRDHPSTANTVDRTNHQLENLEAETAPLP

Mu-type opioid receptor [2] = target: T1, Mu-type opioid receptor; experiment: Agonist activity at human mu opioid receptor expressed in CHO-K1 cells coexpressing Galpha15 assessed as increase in fluorescence of [ca2+]i by measuring maximum efficacy measured for 1.52 sec by FLIPR calcium assay relative to control; assay type: functional, cell-based; conditions: filed as agonist
Mus musculus [3] = experiment: Antinociceptive activity in thermal stimulated C57BL/6 mouse at 4.4 mg/kg, sc measured at 30 to 180 mins by tail flick test; assay type: functional, organism-based; conditions: time 30-180 min
Mus musculus [4] = experiment: Antinociceptive activity in thermal stimulated C57BL/6 mouse assessed as tail flick latency at 4.4 mg/kg, sc measured at 30 to 60 mins by tail flick test; assay type: functional, organism-based; conditions: time 30-60 min
Mus musculus [5] = experiment: Antinociceptive activity in CFA-induced mechanical allodynia C57BL/6 mouse model at 4.4 mg/kg, sc administered twice daily pretreated with CFA for 2 days followed by compound addition and measured at 3 to 7 days by von frey test; assay type: functional, organism-based; conditions: time 3-7 day
Mus musculus [6] = experiment: Antinociceptive activity in thermal stimulated C57BL/6 mouse assessed as drug tolerance at 126.4 to 252.8 microg/kg, sc administered twice per day for 5 days and measured immediately by tail flick test; assay type: functional, organism-based; conditions: dose 126.4-252.8 µg/kg, time 5.0 day
Mus musculus [7] = experiment: Induction of motivational effect in C57BL/6 mouse assessed as increase in reward behaviour at 2.5 mg/kg, sc administered for 4 days and measured on day 6 by CPP analysis; assay type: functional, organism-based; conditions: time 6.0 day

| Compound | EC50 (Mu-type opioid receptor [1]) [µM] | Emax (Mu-type opioid receptor [2]) [%] | other results |
| --- | --- | --- | --- |
| CN(C)C(CNC(=O)c1cc2ccccc2s1)c1ccc(Br)cc1 (stereo not given) | 0.15 | 103 | – |
| Cc1ccc2c(Cl)c(C(=O)NCC(c3ccccc3Cl)N(C)C)sc2c1 (stereo not given) | 2.58 | 55 | – |
| CN(C)C(CNC(=O)c1cc2ccccc2s1)c1cccs1 (stereo not given) | 0.0136 | 131 | – |
| CN(C)C(CNC(=O)c1cc2ccccc2s1)c1cccc(Cl)c1 (stereo not given) | 2.31 | 130 | – |
| CN(C)C(CNC(=O)c1cc2ccccc2s1)c1ccccc1Cl (stereo not given) | 0.00304 | 66.7 | – |
| Cc1ccccc1C(CNC(=O)c1cc2ccccc2s1)N(C)C (stereo not given) | 6.48 | 90.8 | – |
| CN(C)C(CNC(=O)c1cc2ccccc2s1)C1CCCCC1 (stereo not given) | 11.1 | 91 | – |
| CN1CC[C@]23c4c5ccc(O)c4O[C@H]2[C@@H](O)C=C[C@H]3[C@H]1C5 | – | – | Activity (Mus musculus [3]): Active; Activity (Mus musculus [4]): Active; Activity (Mus musculus [5]): inactive; Activity (Mus musculus [6]): Active; Activity (Mus musculus [7]): Active |
| CN(C)C(CNC(=O)c1cc2ccccc2s1)c1ccccc1 (stereo not given) | 3.86 | 99.5 | – |
| CN(C)C(CNC(=O)c1cc2ccccc2s1)c1ccccc1F (stereo not given) | 1.24 | 105 | – |
| Cc1ccc2c(Cl)c(C(=O)NCC(c3ccccc3)N(C)C)sc2c1 (stereo not given) | 1.62 | 73.6 | – |
